Source: patent US6610846B1, “Heteroaromatic glucokinase activators” (Hoffman-La Roche Inc., priority 1999, dated 2003)

Assays:
[1] = system: C57BL/6J mice; experiment: Glucokinase activator in vivo screen (blood glucose after oral dosing); details: administered orally, 50 mg/kg, C57BL/6J mice fasted two hours; decrease in blood glucose compared to vehicle over six hours (Example B)
Protocol: Glucokinase Activator In Vivo Screen Protocol
C57BL/6J mice are orally dosed via gavage with Glucokinase (GK) activator at 50 mg/kg body weight following a two hour fasting period. Blood glucose determinations are made five times during the six hour post-dose study period. Mice (n=6) are weighed and fasted for a two hour period prior to oral treatment.

SMILES	melting point [°C]	glucokinase activator in vivo activity [1]
O=C(Nc1ccccn1)C(CC1CCCC1)c1ccc(S(=O)(=O)C(F)(F)F)cc1 (centres unmarked) [Example 43(A), 3-Cyclopentyl-N-pyridin-2-yl-2-(4-trifluoromethanesulfonyl-phenyl)-propionamide]	151 to 153	excellent glucokinase activator in vivo activity
CS(=O)(=O)c1ccc(C(CC2CCCC2)C(=O)Nc2ccccn2)cc1[N+](=O)[O-] (centres unmarked) [Example 44, 3-Cyclopentyl-2-(4-methanesulfonyl-3-nitrophenyl)-N-pyridin-2-yl-propionamide]	92 to 95	excellent glucokinase activator in vivo activity
O=C(Nc1ccccn1)C(CC1CCCC1)c1ccc(Cl)c([N+](=O)[O-])c1 (centres unmarked) [Example 65, 2-(4-Chloro-3-nitro-phenyl)-3-cyclopentyl-N-pyridin-2-yl-propionamide]	48 to 52	excellent glucokinase activator in vivo activity
Cc1csc(NC(=O)[C@H](CC2CCCC2)c2ccc(S(C)(=O)=O)cc2)n1 [Example 128, 3-Cyclopentyl-2(R)-(4-methanesulfonyl-phenyl)-N-(4-methyl-thiazol-2-yl)-propionamide]	83 to 87	excellent glucokinase activator in vivo activity
Cc1cnc(NC(=O)[C@H](CC2CCCC2)c2ccc(S(C)(=O)=O)cc2)s1 [Example 129, 3-Cyclopentyl-2(R)-(4-methanesulfonyl-phenyl)-N-(5-methyl-thiazol-2-yl)-propionamide]	81 to 85	excellent glucokinase activator in vivo activity
CS(=O)(=O)c1ccc(C(CC2CCCC2)C(=O)Nc2ncc(Cl)s2)cc1 (centres unmarked) [Example 130, N-(5-Chloro-thiazol-2-yl)-3-cyclopentyl-2-(4-methanesulfonyl-phenyl)-propionamide]	76 to 79	excellent glucokinase activator in vivo activity
CS(=O)(=O)c1ccc([C@@H](CC2CCCC2)C(=O)Nc2ncc(Cl)s2)cc1 [Example 131, N-(5-Chloro-thiazol-2-yl)-3-cyclopentyl-2(R)-(4-methanesulfonyl-phenyl)-propionamide]	83 to 88	excellent glucokinase activator in vivo activity
CS(=O)(=O)c1ccc(C(CC2CCCC2)C(=O)Nc2ccncn2)cc1Cl (centres unmarked) [Example 141, 2-(3-Chloro-4-methanesulfonyl-phenyl)-3-cyclopentyl-N-pyrimidin-4-yl-propionamide]		excellent glucokinase activator in vivo activity
CS(=O)(=O)c1ccc([C@@H](CC2CCCC2)C(=O)Nc2ccncn2)cc1Cl [Example 142, 2(R)-(3-Chloro-4-methanesulfonyl-phenyl)-3-cyclopentyl-N-pyrimidin-4-yl-propionamide]		excellent glucokinase activator in vivo activity
Cc1nccc(NC(=O)C(CC2CCCC2)c2ccc(S(C)(=O)=O)c(Cl)c2)n1 (centres unmarked) [Example 143, 2-(3-Chloro-4-methanesulfonyl-phenyl)-3-cyclopentyl-N-(2-methyl-pyrimidin-4-yl)-propionamide]		excellent glucokinase activator in vivo activity
Cc1nccc(NC(=O)[C@H](CC2CCCC2)c2ccc(S(C)(=O)=O)c(Cl)c2)n1 [Example 144, 2(R)-(3-Chloro-4-methanesulfonyl-phenyl)-3-cyclopentyl-N-(2-methyl-pyrimidin-4-yl)-propionamide]		excellent glucokinase activator in vivo activity
Cc1nccc(NC(=O)C(CC2CCCC2)c2ccc(S(C)(=O)=O)c(Br)c2)n1 (centres unmarked) [Example 148(B)(a), 2-(3-Bromo-4-methanesulfonyl-phenyl)-3-cyclopentyl-N-(2-methyl-pyrimidin-4-yl)-propionamide]		excellent glucokinase activator in vivo activity
CS(=O)(=O)c1ccc(C(CC2CCCC2)C(=O)Nc2cnccn2)cc1Br (centres unmarked) [Example 149, 2-(3-Bromo-4-methanesulfonyl-phenyl)-3-cyclopentyl-N-pyrazin-2-yl-propionamide]		excellent glucokinase activator in vivo activity
CS(=O)(=O)c1ccc(C(CC2CCCC2)C(=O)Nc2ccncn2)cc1C(F)(F)F (centres unmarked) [Example 155(B)(a), 3-Cyclopentyl-2-(4-methanesulfonyl-3-trifluoromethyl-phenyl)-N-pyrimidin-4-yl-propionamide]		excellent glucokinase activator in vivo activity
CS(=O)(=O)c1ccc(C(CC2CCCC2)C(=O)Nc2cnccn2)cc1C(F)(F)F (centres unmarked) [Example 155(B)(b), 3-Cyclopentyl-2-(4-methanesulfonyl-3-trifluoromethyl-phenyl)-N-pyrazin-2-yl-propionamide]		excellent glucokinase activator in vivo activity
Cc1nccc(NC(=O)C(CC2CCCC2)c2ccc(S(C)(=O)=O)c(C(F)(F)F)c2)n1 (centres unmarked) [Example 155(B)(c), 3-Cyclopentyl-2-(4-methanesulfonyl-3-trifluoromethyl-phenyl)-N-(2-methyl-pyrimidin-4-yl)-propionamide]		excellent glucokinase activator in vivo activity
CS(=O)(=O)c1ccc([C@@H](CC2CCCC2)C(=O)Nc2cnccn2)cc1C(F)(F)F [Example 157(B)(a), 3-Cyclopentyl-2(R)-(4-methanesulfonyl-3-trifluoromethyl-phenyl)-N-pyrazin-2-yl-propionamide]		excellent glucokinase activator in vivo activity
Cc1nccc(NC(=O)[C@H](CC2CCCC2)c2ccc(S(C)(=O)=O)c(C(F)(F)F)c2)n1 [Example 157(B)(b), 3-Cyclopentyl-2(R)-(4-methanesulfonyl-3-trifluoromethyl-phenyl)-N-(2-methyl-pyrimidin-4-yl)-propionamide]		excellent glucokinase activator in vivo activity

More lines, main results first:

melting point [°C]	SMILES	glucokinase activator in vivo activity [1]
189 to 191	O=C(Nc1nccs1)C(CC1CCCC1)c1ccc(S(=O)(=O)C(F)(F)F)cc1 (centres unmarked) [Example 11(A), 3-Cyclopentyl-N-thiazol-2-yl-2-(4-trifluoromethanesulfonyl-phenyl)-propionamide]	excellent glucokinase activator in vivo activity
40 to 44	O=C(Nc1ccccn1)C(CC1CCCC1)c1ccc(C(F)(F)F)c(F)c1 (centres unmarked) [Example 71, 3-Cyclopentyl-2-(3-fluoro-4-trifluoromethyl-phenyl)-N-pyridin-2-yl-propionamide]	excellent glucokinase activator in vivo activity
106 to 107	CS(=O)(=O)c1ccc(C(CC2CCCC2)C(=O)Nc2nccs2)cc1Br (centres unmarked) [Example 72, 2-(3-Bromo-4-methanesulfonyl-phenyl)-3-cyclopentyl-N-thiazol-2-yl-propionamide]	excellent glucokinase activator in vivo activity
99 to 101	CS(=O)(=O)c1ccc(C(CC2CCCC2)C(=O)Nc2ccccn2)cc1Br (centres unmarked) [Example 73, 2-(3-Bromo-4-methanesulfonyl-phenyl)-3-cyclopentyl-N-pyridin-2-yl-propionamide]	excellent glucokinase activator in vivo activity
145 to 148	CS(=O)(=O)c1ccc(C(CC2CCCC2)C(=O)Nc2nccs2)cc1C#N (centres unmarked) [Example 75, 2-(3-Cyano-4-methanesulfonyl-phenyl)-3-cyclopentyl-N-thiazol-2-yl-propionamide]	excellent glucokinase activator in vivo activity
87 to 90	CS(=O)(=O)c1ccc(C(CC2CCCC2)C(=O)Nc2ccccn2)cc1C#N (centres unmarked) [Example 76, 2-(3-Cyano-4-methanesulfonyl-phenyl)-3-cyclopentyl-N-pyridin-2-yl-propionamide]	excellent glucokinase activator in vivo activity
178 to 179	CCS(=O)(=O)c1ccc(C(CC2CCCC2)C(=O)Nc2nccs2)cc1 (centres unmarked) [Example 77, 3-Cyclopentyl-2-(4-ethanesulfonyl-phenyl)-N-thiazol-2-yl-propionamide]	excellent glucokinase activator in vivo activity
95 to 100	CS(=O)(=O)c1ccc(C(CC2CCCC2)C(=O)Nc2nccs2)cc1C(F)(F)F (centres unmarked) [Example 89(A), 3-Cyclopentyl-2-(4-methanesulfonyl-3-trifluoromethyl-phenyl)-N-thiazol-2-yl-propionamide]	excellent glucokinase activator in vivo activity
168 to 170	O=C(Nc1nccs1)C(CC1CCCC1)c1ccc(OC(F)(F)F)cc1 (centres unmarked) [Example 112, 3-Cyclopentyl-N-thiazol-2-yl-2-(4-trifluoromethoxy-phenyl)-propionamide]	excellent glucokinase activator in vivo activity
157 to 160	COCS(=O)(=O)c1ccc(C(CC2CCCC2)C(=O)Nc2nccs2)cc1 (centres unmarked) [Example 125, 3-Cyclopentyl-2-(4-methoxymethanesulfonyl-phenyl)-N-thiazol-2-yl-propionamide]	excellent glucokinase activator in vivo activity
85 to 90	CS(=O)(=O)c1ccc([C@@H](CC2CCCC2)C(=O)Nc2ccncn2)cc1C(F)(F)F [Example 157(A), 3-Cyclopentyl-2(R)-(4-methanesulfonyl-3-trifluoromethyl-phenyl)-N-pyrimidin-4-yl-propionamide]	excellent glucokinase activator in vivo activity
